Experimental data as given in US20240201205A1, “METHOD FOR DETECTING NEUROLOGICAL DISEASES USING SUPRAMOLECULE POLYMER THERAPEUTICS” (The Regents of the University of California, priority 2022, published 2024).

How the values were obtained:
[1] = target: T1, α-synuclein fibrils isolated from an MSA patient sample (Homo sapiens, UniProt P37840); experiment: Cryo-EM co-structures of compounds with α-synuclein fibrils from MSA patient; format: binding; conditions: for binding to α-synuclein fibrils (cryo-EM co-structure): fibrils from MSA patient sample, 20 μM ligand
T1 construct: fresh-frozen tissue from the cerebellum of patients clinically and neuropathologically diagnosed with MSA; from tissue; host or cells: cerebellum of MSA patients (sarkosyl-insoluble filament preparation)
Experimental: MSA filament purification. Filament purification was based on Schweigenhauser et al., 2020^2. Briefly, 1-2 g of fresh-frozen tissue from the cerebellum of patients clinically and neuropathologically diagnosed with MSA was homogenized at 20 mL/g of tissue in 10 mM Tris-HCl (pH 7.4), 800 mM NaCl, 1 mM EGTA, and 10% sucrose. A final concentration of 1% N-laurosarcosinate (w/v) was added to the homogenates, and these mixtures were incubated at 37° C. for 30 minutes. Homogenates were then centrifuged at 10,000 g for 10 minutes, and the supernatant was kept and then centrifuged at 100,000 g for 20 minutes. The pellets were resuspended at 500 μL/g of frozen tissue in 10 mM Tris-HCl (pH 7.4), 800 mM NaCl, 1 mM EGTA, and 10% sucrose. This was followed by another centrifugation at 3,000 g for 5 minutes. The supernatant was kept and diluted threefold with 50 mM Tris-HCl (pH 7.4), 150 mM NaCl, 10% sucrose, and 2% sarkosyl, followed by another centrifugation at 150,000 g for 1 hour. The final pellet resuspended in 30 mM Tris-HCl (pH 7.4) at a concentration of 100 μL/g frozen tissue.
Cryo-EM sample preparation and data collection. Purified frontal cortex and cerebellum tissue was incubated with 20 μM ligand for 45 minutes prior to freezing. For the tau PHF, 3 μL of purified filaments mixed with GTP-1 was added to a glow-discharged 200 mesh 1.2/1.3R Au Quantifoil grid for 10 seconds before blotting for 2 seconds, and then a second 3 μL aliquot was added for 3 seconds and blotted for 1 second before being plunge frozen in liquid ethane using a FEI Vitrobot Mark IV (Thermo Fisher Scientific). For the synuclein ligands, 3 μL of purified filaments mixed with compound was added to a 200 mesh 1.2/1.3R Au Quantifoil grid coated with a 2 nm thick layer of carbon, which had not been glow discharged. After 30 seconds, grids were blotted for 7.5 seconds at room temperature and 100% humidity. Grids were plunge frozen in liquid ethane using a FEI Vitrobot Mark IV. […] A defocus range of 0.8 to 1.8 μm was used with a total exposure time of 2.024 seconds fractionated into 0.025 seconds subframes. The total dose for each movie was 46 electrons/Å^2. Movies were motion-corrected using MotionCor2^3 in Scipion^4 and were Fourier cropped by a factor of 2 to a final pixel size of 0.834 Å per pixel.
Image processing. All image processing was done in RELION 4^5, and the same workflow was used for each dataset. Dose-weighted summed micrographs were imported into RELION 4. The contrast transfer function was estimated using CTFFIND-4.1^6. Filaments were manually picked and then segments were extracted with a box size of 900 pixels downscaled to 300 pixels. Contaminants and segments contributing to straight filaments were separated out using reference-free 2D class averaging. The remaining segments were re-extracted with a box size of 288 pixels without downscaling. An initial model was generated from a cylinder in RELION. One or more rounds of 3D classification with image alignment were performed, with helical rise and […] parameters fixed to eliminate obvious junk particles. One or more rounds of 3D auto-refinement was run using the best map from 3D classification low-pass filtered to 10 Å, allowing rise and twist parameters to vary. Maps were sharpened using the standard post-processing procedures in RELION.
Model building, refinement, and analysis. Prior to ligand placement, a single strand of a previously solved MSA or tau PHF filament structure^2 (PDB: 6XYQ) was refined against the density using Phenix^7. Refinement of the ligand binding pocket was done in COOT^8. Ligands were placed by hand in the density using Chimera^9. This model was then translated to give a stack spanning 5 rungs.

[2] = target: T2, YFP-tagged full length 0N4R-Tau carrying a P301S mutation (T24 cells) (Homo sapiens, UniProt P10636, P618S); experiment: Tau-AD high throughput screening (counter screen); format: cell-based; conditions: final test concentration of 10 μM; T24 cells transfected with 416-AD11A lysate; 72 h; control is DMSO
T2 construct: C-terminally YFP-tagged full length 0N4R-Tau carrying a P301S mutation (T24 cells); expressed in transfected cells
T2 sequence (P10636 1-383 isoform P10636-6 P243S): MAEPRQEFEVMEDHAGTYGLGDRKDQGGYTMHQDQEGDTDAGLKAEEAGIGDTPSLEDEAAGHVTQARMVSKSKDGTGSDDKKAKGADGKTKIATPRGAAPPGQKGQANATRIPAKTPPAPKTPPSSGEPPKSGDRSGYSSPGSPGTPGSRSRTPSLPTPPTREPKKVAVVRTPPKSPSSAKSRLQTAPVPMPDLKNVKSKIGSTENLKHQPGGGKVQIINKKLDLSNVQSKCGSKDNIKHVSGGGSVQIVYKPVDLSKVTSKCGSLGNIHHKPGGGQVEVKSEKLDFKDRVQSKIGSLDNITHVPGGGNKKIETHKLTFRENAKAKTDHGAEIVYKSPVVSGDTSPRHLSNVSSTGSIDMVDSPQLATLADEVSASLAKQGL
Experimental: A fragment of the Middle Tempral Gyrus (MTG) from Alzheimer's Disease (AD) patient 2217 was resuspended in 9 volumes of PBS (ml/g of brain) and homogenized 3×12 seconds using a probe homogenizer (Thomas Scientific) with disposable Omni Tip plastic homogenizing probes (Thomas Scientific Cat No 3409Y77) to generate a 10% brain homogenate (10% AD11-BH). The 10% AD11-BH was clarified of insoluble debris by centrifugation at 800×g for 5 minutes. The resulting supernatant was collected and the protein concentration of this clarified BH (AD11-CBH) was determined by bicinchoninic acid assay (BCA) (Thermo Fisher Cat No. 23227). HEK293 cells stably expressing a C-terminally Clover-tagged truncated 4R-Tau^243-382 transgene containing the P301L and V337M mutations and a C-terminally Ruby-tagged truncated 3R-Tau^243-382 transgene containing the L266V and V337M mutations (128/139 cells) were transfected with the AD11-CBH using lipofectamine 2000 (LF2K) (Thermo Fisher Cat No. 11668500). Briefly, 0.32 μl of LF2K were diluted in 5 μl Opti-MEM (Thermo Scientific Cat No 31985070) per well of a 384-well plate and incubated for 5 min at room temperature (RT). This mixture was added to 0.32 μg of AD11-CBH diluted in 5 μl of PBS per well of a 384-well plate and vortex briefly. The transfection mixture was incubated at room temperature for 90 min. The transfection complexes were subsequently added to a single well of a 384-well plate containing 3500 128/139 cells. After 3 days the cells were harvested, counted and plated at a density of 1 cell/well in a 96-well plate. A clonal cell line containing Clover and Ruby positive Tau aggregates was selected and termed 416-AD11A cells. Following the expansion of these 416-AD11A cells, a cell lysate was prepared by freeze/thaw. The cells from a confluent T175 flask were harvested in 1 ml of PBS containing 1× protease inhibitor cocktail by scraping. The cell suspension was subjected to 4 cycles of freezing in liquid nitrogen for 5 minutes followed by thawing at 37° C. for 5 minutes. The resulting cell lysate was centrifuged at 2000 RPM for 10 minutes to remove the cell debris and the protein concentration of the resulting 416-AD11A lysate was determined by BCA assay and aliquots frozen for future use.
HEK293 cells stably expressing C-terminally YFP-tagged full length 0N4R-Tau carrying a P301S mutation (T24 cells) are plated at a density of 4000 cells per well of a 384-well black walled, clear bottom plate (Greiner Cat No 5678-1091Q) in 60 μl of complete DMEM (DMEM (Corning Cat No 10-013-CV), 10% FBS (VWR Cat No 97068-085, 0.5% Penicillin/streptomycin (Gibco Cat No 15140-122)) containing 0.1 μg/ml Hoechst Dye (Thermo Scientific Cat No H3570). Transfection complexes are prepared by diluting 0.15 μg of 416-AD11A lysate or HEK lysate in 5 μl of PBS per well to be transfected and 0.15 μl of Lipofectamine 2000 (LF2K) (ThermoFisher Cat No 11668500) in 5 μl of Opti-MEM per well to be transfected in separate tubes. The pre-diluted 416-AD11A or HEK lysates and LF2K are subsequently mixed and allowed to incubate for 90 minutes at RT. A 10 μl aliquot of the 416-AD11A or HEK transfection complexes is added to the appropriate wells of the 384-well plate containing the T24 cells using the Bravo liquid handling platform (Agilent). Wells A23-P24 of the 384-well plate are transfected with HEK lysate to act as a reference point for spontaneous aggregation of 0N4R^P301S and for transfection related toxicity. The dilution of test compounds is performed using the Bravo liquid handling platform (Agilent). The control is DMSO in the absence of any test compound. Briefly, 1 μl of each test compound (5 mM stock) in the 384-well test plate was transferred to a 384-well plate (Greiner Cat No 781280) containing 61.5 μl of complete DMEM to generate a working stock of compounds at 80 μM. […]

Row | SMILES | AD Tau Aggregates (% control) [2] [% control] | other results
1 | Cc1nccc2cc(-c3nc(-n4ccc5cccnc5c4=O)c(-c4ccc(C(F)(F)F)cc4)o3)ccc12 [compound 427] |  | binding to α-synuclein fibrils (cryo-EM co-structure) [1]: bound to fibrils isolated from an MSA patient sample
2 | CNC(=O)c1ncc2c(-c3ccccc3)nn(-c3ccc(F)cc3)c2n1 [Compound 246] | 120 | 
3 | CCc1ccccc1-c1nn(-c2ccc(F)cc2)c2nc(C(=O)NC)ncc12 [Compound 245] | 120 | 
4 | CNC(=O)c1ncc2c(-c3ccccc3Cl)nn(-c3ccc(F)cc3)c2n1 [Compound 244] | 100 | 
5 | Cc1ccnn1-c1nc(-n2cc3ccn(C(F)(F)F)c3nc2=O)c(-c2ccc(F)cc2)o1 [Compound 240] | 95 | 
6 | CNc1nc(=O)n(-c2nc(-c3cccc(Cl)c3)oc2-c2ccc(Cl)c(F)c2)cc1F [Compound 125, 1-(5-(4-chloro-3-fluorophenyl)-2-(3-chlorophenyl)oxazol-4-yl)-5-fluoro-4-(methylamino)pyrimidin-2(1H)-one] |  | binding to α-synuclein fibrils (cryo-EM co-structure) [1]: bound to fibrils isolated from an MSA patient sample
7 | CNC(=O)c1ncc2c(-c3ccnc(C(C)(F)F)n3)nn(-c3ccc(Cl)cc3)c2n1 [Compound 22, 1-(4-chlorophenyl)-3-(2-(1,1-difluoroethyl)pyrimidin-4-yl)-N-methyl-1H-pyrazolo[3,4-d]pyrimidine-6-carboxamide] |  | binding site on α-synuclein ([1]; cryo-EM, residues of SEQ ID NO: 9): bound to residues 86-99 of α-synuclein; binding to α-synuclein fibrils (cryo-EM co-structure) [1]: bound to fibrils isolated from an MSA patient sample
8 | CNC(=O)c1ncc2c(-c3ccccc3)nn(Cc3ccccc3)c2n1 [Compound 248] | 95 | 
9 | O=c1nc2c(ccn2C(F)(F)F)cn1-c1nc(-c2ccnc(C3CC3)n2)oc1-c1ccc(F)cc1 [compound 293] |  | binding to α-synuclein fibrils (cryo-EM co-structure) [1]: bound to fibrils isolated from an MSA patient sample
10 | Cc1cc(-c2nc(-n3cc4ccn(C5CC5)c4nc3=O)c(-c3ccc(F)c(F)c3)o2)ncc1F [Compound 234] | 85 | 
11 | CNc1nc(=O)n(-c2nc(-c3cccc(C)c3)oc2-c2ccc(Cl)c(F)c2)cc1F [Compound 83, 1-(5-(4-chloro-3-fluorophenyl)-2-(m-tolyl)oxazol-4-yl)-5-fluoro-4-(methylamino)pyrimidin-2(1H)-one] |  | binding to α-synuclein fibrils (cryo-EM co-structure) [1]: bound to fibrils isolated from an MSA patient sample
12 | CNC(=O)c1ncc2c(-c3cccc4c3OC(F)(F)O4)nn(Cc3ccccc3)c2n1 [Compound 254] | 100 | 
13 | CNC(=O)c1ncc2c(-c3cc4c(cnn4C)cc3F)nn(Cc3ccccc3)c2n1 [Compound 253] | 96 | 
14 | Cc1ccn(-c2nc(-n3cc4ccn(C(F)(F)F)c4nc3=O)c(-c3ccc(F)cc3)o2)n1 [Compound 241] | 98 | 
15 | O=c1nc2c(ccn2C(F)(F)F)cn1-c1nc(N2Cc3ccccc3C2)oc1-c1ccc(F)cc1 [Compound 242] | 99 | 

Continued, in another order:

Row | AD Tau Aggregates (% control) [2] [% control] | SMILES | other results
16 | 92 | CC(=O)Nc1ncc2c(-c3ccccc3)nn(Cc3ccncc3)c2n1 [Compound 279] | 
17 | 110 | CC(=O)Nc1ncc2c(-c3ccccc3)nn(C(C)c3ccccc3)c2n1 (stereo not drawn) [Compound 265] | 
18 | 99 | CNC(=O)c1ncc2c(-c3ccc(F)cc3)nn(Cc3ccnc(F)c3)c2n1 [Compound 259] | 
19 | 90 | CC(=O)Nc1ncc2c(-c3ccccc3)nn(CC3CCCCC3)c2n1 [Compound 280] | 
20 | 94 | COC(=O)Nc1ncc2c(-c3ccccc3)nn(-c3ccccc3)c2n1 [Compound 274] | 
21 | 110 | CNC(=O)c1ncc2c(-c3ccc(F)cc3)nn(CC3CCCCC3)c2n1 [Compound 258] | 
22 | 100 | CCC(=O)Nc1ncc2c(-c3ccccc3)nn(Cc3ccc(OC)cc3)c2n1 [Compound 269] | 
23 | 98 | CC(=O)Nc1ncc2c(-c3ccccc3C)nn(Cc3ccccc3)c2n1 [Compound 266] | 
24 | 87 | CNC(=O)c1ncc2c(-c3ccc(F)cc3)nn(Cc3ccc(F)cc3)c2n1 [Compound 261] | 
25 | 91 | CC(=O)Nc1ncc2c(-c3ccccc3)nn(Cc3cncc(F)c3)c2n1 [Compound 267] | 
26 | 95 | CNC(=O)c1ncc2c(-c3ccc(F)cc3)nn(Cc3cccc(F)c3)c2n1 [Compound 260] | 
